Active and inactive are the calls of the source. No cut-off for these calls is given here.
What was measured:
[1] = Metabolic stability in Beagle dog liver microsomes assessed as half life at 1 uM measured up to 60 mins in presence of NADPH regenerating system by LC-MS/MS analysis; format: ADME, Canis lupus familiaris, Microsome
BaF3 = experiment: Antiproliferative activity against mouse BaF3 cells harbouring FLT3-ITD-D835Y mutant assessed as inhibition of cell growth measured after 3 days by celltiter-glo luminescent cell viability assay; format: functional, cell-based; conditions: BaF3, 72 h
MOLM-13 [2] = experiment: Induction of apoptosis in human MOLM-13 cells assessed as necrotic cells at 0.1 uM incubated for 48 hrs by Annexin V-FITC/PI staining based flow cytometry analysis (reference value: 0.077%); format: functional
[3] = Metabolic stability in Beagle dog liver microsomes assessed as intrinsic clearance at 1 uM measured up to 60 mins in presence of NADPH regenerating system by LC-MS/MS analysis; format: ADME, Canis lupus familiaris, Microsome; conditions: read-out: CLH
[4] = target: Voltage-gated inwardly rectifying potassium channel KCNH2 (Homo sapiens, UniProt Q12809); experiment: Inhibition of human ERG expressed in CHO cells by Qpatch assay; format: toxicity, cell-based
MOLM-13 [5] = experiment: Induction of apoptosis in human MOLM-13 cells assessed as late apoptotic cells at 1 uM incubated for 48 hrs by Annexin V-FITC/PI staining based flow cytometry analysis (reference value: 3.10%); format: functional
MOLM-13 [6] = experiment: Induction of cell cycle arrest in human MOLM-13 cells assessed as accumulation of cells at G2 phase at 1 uM incubated for 48 hrs (reference value: […]); format: functional
[7] = target: Receptor-type tyrosine-protein kinase FLT3 (Homo sapiens) (UniProt P36888); experiment: Inhibition of FLT3 phosphorylation in human MOLM-13 cells measured after 2 hrs by Western blot analysis; format: cell-based; conditions: dose 0.01-1 µM
[8] = Metabolic stability in Sprague-Dawley rat liver microsomes assessed as intrinsic clearance at 1 uM measured up to 60 mins in presence of NADPH regenerating system by LC-MS/MS analysis; format: ADME, Microsome; conditions: read-out: CLH
[9] = Volume of distribution in mouse at 5 mg/kg, iv; format: ADME, organism-based; conditions: in vivo
MOLM-13 [10] = experiment: Inhibition of STAT5 phosphorylation in human MOLM-13 cells measured after 2 hrs by Western blot analysis; format: cell-based; conditions: dose 0.01-1 µM
[11] = Metabolic stability in Sprague-Dawley rat liver microsomes assessed as half life at 1 uM measured up to 60 mins in presence of NADPH regenerating system by LC-MS/MS analysis; format: ADME, Microsome
MOLM-13 [12] = experiment: Induction of cell cycle arrest in human MOLM-13 cells assessed as accumulation of cells at G1 phase at 0.1 uM incubated for 48 hrs (reference value: 40.3%); format: functional
[13] = Metabolic stability in Beagle dog liver microsomes assessed as parent compound remaining at 1 uM measured after 60 mins by LC-MS/MS analysis; format: ADME, Canis lupus familiaris, Microsome; conditions: read-out: Stability
[14] = target: Cyclin-dependent kinase 5/CDK5 activator 1 (Homo sapiens) (UniProt Q00535+Q15078); experiment: Inhibition of human CDK5/p25 at 1 uM by Eurofins-DiscoverX assay; format: protein-complex assay
[15] = target: Receptor-type tyrosine-protein kinase FLT3 (Homo sapiens) (UniProt P36888); experiment: Inhibition of FLT3 phosphorylation in human MOLM-13 cells at 0.2 uM measured after 2 hrs by Western blot analysis relative to control; format: cell-based
[16] = target: Cyclin-dependent kinase 1/cyclin B1 (Homo sapiens) (UniProt P06493+P14635); experiment: Inhibition of human CDK1/CyclinB1 assessed as remaining activity at 1 uM by Eurofins-DiscoverX assay relative to control; format: protein-complex assay
[17] = Antiproliferative activity against non-FLT3 expressing human OCI-Ly1 cells assessed as inhibition of cell growth measured after 3 days by celltiter-glo luminescent cell viability assay; format: functional, cell-based; conditions: OCI-Ly1, 72 h
[18] = Metabolic stability in human liver microsomes assessed as parent compound remaining at 1 uM measured after 60 mins by LC-MS/MS analysis; format: ADME, Microsome; conditions: read-out: Stability
[19] = Cmax in mouse at 5 mg/kg, iv; format: ADME, organism-based; conditions: in vivo
[20] = target: CDK6/cyclin D3 (Homo sapiens) (UniProt P30281+Q00534); experiment: Inhibition of human CDK6/cyclinD3 assessed as remaining activity at 1 uM by Eurofins-DiscoverX assay relative to control; format: protein-complex assay
CYP2C19 = CYP2C19 (Homo sapiens, UniProt P33261); experiment: Inhibition of CYP2C19 in human liver microsomes using S-mephenytoin as substrate at 10 uM incubated for 10 mins in presence of NADPH by LC-MS/MS analysis relative to control; format: ADME, Microsome; conditions: probe S-mephenytoin
MOLM-13 [21] = experiment: Induction of apoptosis in human MOLM-13 cells incubated for 48 hrs by Annexin V-FITC/PI staining based flow cytometry analysis; format: functional, cell-based; conditions: dose 0.1-1 µM
CYP1A2 = CYP1A2 (Homo sapiens, UniProt P05177); experiment: Inhibition of CYP1A2 in human liver microsomes using phenacetin as substrate at 10 uM incubated for 10 mins in presence of NADPH by LC-MS/MS analysis relative to control; format: ADME, Microsome; conditions: probe phenacetin
MOLM-13 [22] = experiment: Induction of apoptosis in human MOLM-13 cells assessed as early apoptotic cells at 1 uM incubated for 48 hrs by Annexin V-FITC/PI staining based flow cytometry analysis (reference value: 4.93%); format: functional
[23] = target: CDK4/Cyclin D3 (Homo sapiens) (UniProt P11802+P30281); experiment: Inhibition of human CDK4/cyclinD3 at 1 uM by Eurofins-DiscoverX assay; format: protein-complex assay
[24] = target: Cyclin-dependent kinase 2/cyclin A (Homo sapiens) (UniProt P24941+P20248+P78396); experiment: Inhibition of human CDK2/CyclinA at 1 uM by Eurofins-DiscoverX assay; format: protein-complex assay
MOLM-13 [25] = experiment: Induction of apoptosis in human MOLM-13 cells assessed as viable cells at 0.1 uM incubated for 48 hrs by Annexin V-FITC/PI staining based flow cytometry analysis (reference value: 91.9%); format: functional; conditions: read-out: Activity
CYP2D6 = CYP2D6 (Homo sapiens, UniProt P10635); experiment: Inhibition of CYP2D6 in human liver microsomes using dextromethorphan as substrate at 10 uM incubated for 10 mins in presence of NADPH by LC-MS/MS analysis relative to control; format: ADME, Microsome; conditions: probe dextromethorphan
[26] = Metabolic stability in human liver microsomes assessed as half life at 1 uM measured up to 60 mins in presence of NADPH regenerating system by LC-MS/MS analysis; format: ADME, Microsome
MOLM-13 [27] = experiment: Induction of apoptosis in human MOLM-13 cells assessed as late apoptotic cells at 0.1 uM incubated for 48 hrs by Annexin V-FITC/PI staining based flow cytometry analysis (reference value: 3.10%); format: functional
MOLM-13 [28] = experiment: Antiproliferative activity against human MOLM-13 cells harbouring FLT3-ITD assessed as inhibition of cell growth measured after 3 days by celltiter-glo luminescent cell viability assay; format: functional, cell-based; conditions: MOLM-13, 72 h
[29] = Metabolic stability in human liver microsomes assessed as intrinsic clearance at 1 uM measured up to 60 mins in presence of NADPH regenerating system by LC-MS/MS analysis; format: ADME, Microsome; conditions: read-out: CLH
[30] = Antiproliferative activity against non-FLT3 expressing human TMD8 cells assessed as inhibition of cell growth measured after 3 days by celltiter-glo luminescent cell viability assay; format: functional, cell-based; conditions: TMD8, 72 h
HL-60 = experiment: Antiproliferative activity against human HL-60 cells harbouring wild type FLT3 assessed as inhibition of cell growth measured after 3 days by celltiter-glo luminescent cell viability assay; format: functional, cell-based; conditions: HL-60, 72 h

Chain of Receptor-type tyrosine-protein kinase FLT3 (Homo sapiens) (P36888 whole entry): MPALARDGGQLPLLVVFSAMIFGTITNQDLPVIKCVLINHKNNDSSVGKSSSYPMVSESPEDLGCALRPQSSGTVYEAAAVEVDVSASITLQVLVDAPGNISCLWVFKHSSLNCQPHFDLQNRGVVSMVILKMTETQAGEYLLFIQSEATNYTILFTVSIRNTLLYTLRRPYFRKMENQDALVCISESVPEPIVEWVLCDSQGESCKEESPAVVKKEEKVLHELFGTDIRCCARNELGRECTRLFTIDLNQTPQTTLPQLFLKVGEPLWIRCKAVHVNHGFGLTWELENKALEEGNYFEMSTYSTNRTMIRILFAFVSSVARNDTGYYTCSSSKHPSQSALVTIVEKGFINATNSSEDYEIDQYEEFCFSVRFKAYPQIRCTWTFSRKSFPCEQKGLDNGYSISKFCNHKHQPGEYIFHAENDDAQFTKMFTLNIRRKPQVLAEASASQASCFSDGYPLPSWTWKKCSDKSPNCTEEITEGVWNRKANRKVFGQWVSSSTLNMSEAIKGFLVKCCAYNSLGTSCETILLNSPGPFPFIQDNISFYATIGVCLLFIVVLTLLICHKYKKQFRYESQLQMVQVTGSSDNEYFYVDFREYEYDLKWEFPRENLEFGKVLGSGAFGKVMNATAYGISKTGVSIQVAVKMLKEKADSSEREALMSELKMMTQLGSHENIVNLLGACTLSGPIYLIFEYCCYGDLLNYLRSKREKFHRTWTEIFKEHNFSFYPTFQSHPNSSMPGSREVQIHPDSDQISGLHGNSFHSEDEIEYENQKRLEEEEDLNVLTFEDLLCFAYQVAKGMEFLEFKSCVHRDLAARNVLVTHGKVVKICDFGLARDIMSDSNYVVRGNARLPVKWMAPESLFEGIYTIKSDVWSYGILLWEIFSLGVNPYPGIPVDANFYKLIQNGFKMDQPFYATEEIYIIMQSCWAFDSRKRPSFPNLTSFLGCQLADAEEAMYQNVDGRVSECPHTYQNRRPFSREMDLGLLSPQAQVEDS
Chain of CYP2C19 (P33261 whole entry): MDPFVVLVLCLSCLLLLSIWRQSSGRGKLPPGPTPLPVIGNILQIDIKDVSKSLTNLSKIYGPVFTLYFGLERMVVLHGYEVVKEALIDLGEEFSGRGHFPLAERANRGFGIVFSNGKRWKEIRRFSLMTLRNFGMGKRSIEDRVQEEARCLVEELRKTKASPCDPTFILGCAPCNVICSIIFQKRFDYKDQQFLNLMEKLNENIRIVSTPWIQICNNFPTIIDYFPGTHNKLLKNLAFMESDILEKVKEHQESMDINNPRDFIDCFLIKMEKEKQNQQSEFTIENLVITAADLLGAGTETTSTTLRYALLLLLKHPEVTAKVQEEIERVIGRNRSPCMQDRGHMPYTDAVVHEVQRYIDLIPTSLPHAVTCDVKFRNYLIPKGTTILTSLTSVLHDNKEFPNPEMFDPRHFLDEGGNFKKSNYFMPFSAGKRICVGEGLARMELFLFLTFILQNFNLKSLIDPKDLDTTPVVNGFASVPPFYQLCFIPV
Chain of Voltage-gated inwardly rectifying potassium channel KCNH2 (Q12809 whole entry): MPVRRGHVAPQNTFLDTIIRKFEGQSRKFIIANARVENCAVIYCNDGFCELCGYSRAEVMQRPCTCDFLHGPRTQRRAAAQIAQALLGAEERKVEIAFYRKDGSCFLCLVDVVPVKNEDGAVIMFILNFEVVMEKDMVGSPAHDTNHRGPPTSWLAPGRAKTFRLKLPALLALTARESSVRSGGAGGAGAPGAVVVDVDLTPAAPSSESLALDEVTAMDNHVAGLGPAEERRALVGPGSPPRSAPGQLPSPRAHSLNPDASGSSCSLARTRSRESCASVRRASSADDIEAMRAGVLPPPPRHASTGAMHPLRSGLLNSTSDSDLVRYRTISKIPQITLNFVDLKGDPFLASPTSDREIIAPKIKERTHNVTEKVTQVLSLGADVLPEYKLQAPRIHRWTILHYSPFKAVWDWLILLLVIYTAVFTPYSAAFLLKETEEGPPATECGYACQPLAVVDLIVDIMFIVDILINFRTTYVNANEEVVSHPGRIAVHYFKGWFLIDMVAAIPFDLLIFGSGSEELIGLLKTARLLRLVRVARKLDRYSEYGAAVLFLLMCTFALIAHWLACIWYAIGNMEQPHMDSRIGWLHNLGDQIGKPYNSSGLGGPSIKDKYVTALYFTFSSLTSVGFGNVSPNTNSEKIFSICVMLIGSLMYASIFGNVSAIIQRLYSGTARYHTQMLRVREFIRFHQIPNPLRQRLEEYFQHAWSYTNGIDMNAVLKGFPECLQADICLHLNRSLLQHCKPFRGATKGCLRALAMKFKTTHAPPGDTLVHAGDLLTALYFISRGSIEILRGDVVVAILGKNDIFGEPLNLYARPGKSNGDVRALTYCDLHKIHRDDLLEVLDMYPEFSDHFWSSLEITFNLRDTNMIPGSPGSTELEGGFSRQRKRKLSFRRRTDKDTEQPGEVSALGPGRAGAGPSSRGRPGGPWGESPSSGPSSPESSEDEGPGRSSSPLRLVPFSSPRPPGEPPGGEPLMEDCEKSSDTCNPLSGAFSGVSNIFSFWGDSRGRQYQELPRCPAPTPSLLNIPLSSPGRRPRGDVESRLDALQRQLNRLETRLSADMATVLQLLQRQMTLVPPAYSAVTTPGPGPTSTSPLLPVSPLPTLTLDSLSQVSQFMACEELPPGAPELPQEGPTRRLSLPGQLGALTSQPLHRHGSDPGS
Chain of CYP2D6 (P10635 whole entry): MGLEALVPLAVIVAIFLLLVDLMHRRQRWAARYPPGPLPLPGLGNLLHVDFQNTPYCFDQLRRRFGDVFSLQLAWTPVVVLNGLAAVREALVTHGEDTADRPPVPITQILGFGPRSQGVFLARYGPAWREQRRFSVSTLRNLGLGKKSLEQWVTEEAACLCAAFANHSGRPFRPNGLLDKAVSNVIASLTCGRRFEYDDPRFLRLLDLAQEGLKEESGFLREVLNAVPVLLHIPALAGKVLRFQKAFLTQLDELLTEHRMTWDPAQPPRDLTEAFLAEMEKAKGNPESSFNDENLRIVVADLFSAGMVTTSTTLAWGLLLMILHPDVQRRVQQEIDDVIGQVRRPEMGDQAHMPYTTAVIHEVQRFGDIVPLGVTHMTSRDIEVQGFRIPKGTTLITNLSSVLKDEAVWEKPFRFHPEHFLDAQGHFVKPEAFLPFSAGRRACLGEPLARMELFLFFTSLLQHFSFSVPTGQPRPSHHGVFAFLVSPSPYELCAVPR
Chain of Cyclin-dependent kinase 1/cyclin B1 (Homo sapiens) (P06493 whole entry, looked up): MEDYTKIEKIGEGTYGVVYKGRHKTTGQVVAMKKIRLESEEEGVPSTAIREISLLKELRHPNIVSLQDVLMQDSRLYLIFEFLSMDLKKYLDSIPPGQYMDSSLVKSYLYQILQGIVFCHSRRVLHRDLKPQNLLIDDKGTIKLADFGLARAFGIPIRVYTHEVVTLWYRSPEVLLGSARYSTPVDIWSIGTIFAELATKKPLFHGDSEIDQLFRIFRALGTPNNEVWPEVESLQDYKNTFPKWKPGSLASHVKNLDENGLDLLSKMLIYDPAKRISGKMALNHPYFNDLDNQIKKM
Chain of Cyclin-dependent kinase 1/cyclin B1 (Homo sapiens) (P14635 whole entry, looked up): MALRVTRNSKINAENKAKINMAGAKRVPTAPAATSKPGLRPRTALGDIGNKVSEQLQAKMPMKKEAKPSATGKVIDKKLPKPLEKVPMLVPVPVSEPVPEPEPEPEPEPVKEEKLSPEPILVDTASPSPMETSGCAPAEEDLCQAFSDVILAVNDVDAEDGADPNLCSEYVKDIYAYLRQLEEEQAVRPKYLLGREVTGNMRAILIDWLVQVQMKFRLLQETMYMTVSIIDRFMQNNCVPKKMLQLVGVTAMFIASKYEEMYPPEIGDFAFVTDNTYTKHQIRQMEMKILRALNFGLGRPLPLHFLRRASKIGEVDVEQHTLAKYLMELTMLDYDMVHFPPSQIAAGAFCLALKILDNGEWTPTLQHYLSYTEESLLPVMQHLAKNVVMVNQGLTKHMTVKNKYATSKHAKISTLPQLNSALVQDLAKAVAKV
Chain of CYP1A2 (P05177 whole entry): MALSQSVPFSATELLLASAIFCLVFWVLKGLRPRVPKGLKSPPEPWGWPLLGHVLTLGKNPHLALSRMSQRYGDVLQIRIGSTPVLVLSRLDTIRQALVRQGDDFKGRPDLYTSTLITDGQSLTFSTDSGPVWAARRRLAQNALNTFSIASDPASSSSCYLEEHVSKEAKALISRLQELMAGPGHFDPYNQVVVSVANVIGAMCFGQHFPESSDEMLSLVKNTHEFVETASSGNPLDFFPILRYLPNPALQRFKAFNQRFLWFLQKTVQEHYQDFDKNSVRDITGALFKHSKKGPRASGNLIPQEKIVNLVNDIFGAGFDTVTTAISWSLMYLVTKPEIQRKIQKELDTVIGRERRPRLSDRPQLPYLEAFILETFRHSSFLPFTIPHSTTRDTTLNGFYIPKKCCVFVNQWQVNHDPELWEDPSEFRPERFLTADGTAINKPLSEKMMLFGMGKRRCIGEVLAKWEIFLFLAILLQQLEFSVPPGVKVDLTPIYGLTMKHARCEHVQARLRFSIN
Chain of Cyclin-dependent kinase 5/CDK5 activator 1 (Homo sapiens) (Q00535 whole entry): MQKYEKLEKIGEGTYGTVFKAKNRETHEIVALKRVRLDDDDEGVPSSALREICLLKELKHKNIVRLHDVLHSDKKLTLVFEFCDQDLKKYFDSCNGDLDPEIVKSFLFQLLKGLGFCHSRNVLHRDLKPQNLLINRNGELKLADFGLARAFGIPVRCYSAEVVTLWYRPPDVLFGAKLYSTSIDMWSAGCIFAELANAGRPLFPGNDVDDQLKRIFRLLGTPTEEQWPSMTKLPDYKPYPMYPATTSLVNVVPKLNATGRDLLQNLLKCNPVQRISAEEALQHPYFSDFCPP
Chain of Cyclin-dependent kinase 5/CDK5 activator 1 (Homo sapiens) (Q15078 99-307 partner limits assumed): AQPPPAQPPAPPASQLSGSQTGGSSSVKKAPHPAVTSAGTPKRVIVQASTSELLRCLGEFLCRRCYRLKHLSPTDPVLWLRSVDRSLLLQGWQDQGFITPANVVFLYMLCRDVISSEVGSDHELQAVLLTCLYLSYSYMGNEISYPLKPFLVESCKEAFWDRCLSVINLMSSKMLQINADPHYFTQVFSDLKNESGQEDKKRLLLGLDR

For `Cc1cc(=O)n(-c2cc(Cl)ccc2F)nc1C(=O)Nc1ccc(Oc2ccnc(NC(=O)N3CC(O)C3)c2)c(F)c1`, the half-life at 1 µM [1] was 2.1 h, the IC50 (BaF3) was 6.6 µM and the Activity (MOLM-13 [2]) was 0.062%. For the same molecule, the microsomal CLint at 1 µM [3] was 11.1 µL/min/mg, the IC50 [4] was > 30 µM and the Activity (MOLM-13 [5]) was 36.2%. The Activity (MOLM-13 [6]) was 0%, the inhibition [7] was “Dose-dependent-effect” and the microsomal CLint at 1 µM [8] was 11.8 µL/min/mg. For the same molecule, the Vd [9] was 20.9 L/kg, the inhibition (MOLM-13 [10]) was “Dose-dependent-effect” and the half-life at 1 µM [11] was 1.95 h. The Activity (MOLM-13 [12]) was 50.1%, the remaining at 1 h, 1 µM [13] was 103% and the inhibition [14] was “inactive”. For the same molecule, the inhibition [15] was 100%, the Activity [16] was 88% and the IC50 [17] was 12.3 µM. For the same molecule, the remaining at 1 h, 1 µM [18] was 99.6%, the Cmax [19] was 443 ng/mL and the Activity [20] was 88%. For the same molecule, the inhibition at 10 min, 10 µM (CYP2C19) was 36.9%, the Activity (MOLM-13 [21]) was “Dose-dependent-effect” and the inhibition at 10 min, 10 µM (CYP1A2) was 9.5%. For the same molecule, the Activity (MOLM-13 [22]) was 29.6%, the inhibition [23] was “inactive” and the inhibition [24] was “inactive”. For the same molecule, the viability at 0.1 µM (MOLM-13 [25]) was 90.6%, the inhibition at 10 min, 10 µM (CYP2D6) was 19.8% and the half-life at 1 µM [26] was 1.82 h. The Activity (MOLM-13 [27]) was 3.37%, the IC50 (MOLM-13 [28]) was 0.14 µM and the microsomal CLint at 1 µM [29] was 12.7 µL/min/mg. The IC50 [30] was 22.3 µM and the IC50 (HL-60) was 18.9 µM.
